Patent US20180346446A1, “IRE1 SMALL MOLECULE INHIBITORS” (QUENTIS THERAPEUTICS, INC., priority 2017, published 2018)

Experiments:
293T cells = assay: Growth assay (cytotoxicity); assay type: cell-based; settings: 2 day incubation
Description: A growth assay was performed to evaluate the compounds disclosed herein for cytotoxicity. Briefly, 5,000,000 293T cells were resuspended in 18 mL of cDMEM for a final concentration of 277,777 cells/mL. […] In a separate 96 well dilution plate, 199 uL cDMEM and 1 uL of DMSO or any one of the compounds disclosed herein (shown as Test Compound 1, 2, 3, 4, 5, or 6 below) were added to wells A4, A8, C4, C8, E4, E8, G4, and G8. 133.3 uL cDMEM was added to wells 1, 2, 3, 5, 6, and 7 in rows A, C, E and G of the dilution plate. Compounds were serially diluted leftwards in threefold dilutions (66.7 uL into 133.3 uL cDMEM). 20 uL of each dilution was transferred in duplicate (duplicates in vertical paired wells) to the cells plated in the 96-well plate shown in Table 5, to the total concentrations shown below. 200 uL cDMEM was added to media wells (wells G5-H8). The plate was then placed in a humidified chamber for a 2 day incubation, and then photographed (media was more yellow in wells with potent cell growth). Absorbance was then measured at about […] (lower for more acidic media) and about […] (higher for more acidic media).

IRE1a [1] = target: T1, IRE1a (Homo sapiens, UniProt O75460); assay: In vitro FRET assay (XBP1 RNA probe cleavage by IRE1a); assay type: biochemical; set-up: purchased SignalChem; settings: 2 nM IRE1a protein
Description: In vitro FRET assay was performed to evaluate the ability of select compounds to inhibit IRE1, the results of which are summarized in Table 3. To perform the in vitro FRET assay, 1× complete assay buffer (CAB; […], 50 mM sodium citrate pH 7.15, ImM magnesium acetate, 0.02% tween 20) was used to dilute SignalChem IRE1a protein to a final concentration of 2 nM. Selected compounds were serially diluted with DMSO in a non-binding black 384-well plate for a total of 15 ul in each well. 2 ul of the serially diluted compound or DMSO control were then added to new wells containing 98 ul of 1×CAB, for a total volume of 100 ul, 10 ul of which were then transferred to wells of a new plate. 5 ul of the diluted IRE1a was then added to each well. 5 ul of a […] XBP1 RNA probe was then added to each well. Fluorescence was then read over 30 minutes in kinetic mode (485/515 nm).
Two RNA probes were used, XBP1 wildtype (SEQ ID NO: 2) which is able to be spliced by active IRE1a or XBP1 mutant (SEQ ID NO: 3) which is unable to be spliced. Each probe contained a 5′ 6-FAM modification and a 3′ IOWA Black FQ modification. […]

IRE1a [2] = target: T1, IRE1a; assay: IRE1a Endoribonuclease Nanoluciferase Assay (XBP1 luciferase reporter in 293T cells); assay type: cell-based; settings: 293T cells transfected with XBP1 luciferase reporter, ER stressors +/- inhibitors
Description: Compounds disclosed herein were assessed for disruption of IRE1 signaling using a IRE1a Endoribonuclease Nanoluciferase Assay. Briefly, 2.5×10^6 293T cells were seeded in a 10 cm^2 tissue culture plate. About 24 hours later, the cells were transfected with Effectene. In a 15 mL Tube, the following was added: 2 ug XBP1 luciferase reporter plasmid (PGK-Luc2-P2A-XBP1u-Nanoluciferase-PEST); 300 ul EC buffer; and 16 ul Enhancer, followed by incubation at room temp for 5 minutes. Next, 60 ul Effectene (Qiagen 301427) was added, followed by incubation at room temperature for 10 minutes. 2.6 mL cDMEM media was added. Old media was aspirated from the cells, followed by addition of 7 mL fresh media. Full transfection mixture was added dropwise to cells. Cells were incubated for 6 hours, followed by trypsinization, centrifugation and resuspension in 11 mL media. 100 uL of cells were plated per a well in a 96 well plate. A day later, ER stressors of choice +/− inhibitors were added. To harvest, media was aspirated from cells completely, then 50 uL 1× passive lysis buffer (Promega: E1941) was added per well and put on shaker (300 rpm) for 30 minutes at room temperature. Cells were centrifuged, and 15 uL sample per well was added to a new, opaque white 384 well plate (Corning 3570). 15 uL OneGlo (nanoluciferase kit, Promega N1630) was added. Plates were spun down, placed on shaker (300 rpm) for 10 minutes. Plates were read on luminometer, 1000 ms integration time per well. 15 uL Stop and Glo (nanoluciferase kit) was added. Plates were spun down, placed on shaker (300 rpm) for 10 minutes. Plates were read on luminometer, 1000 ms second integration time per well. Recordings are provided below in Table 4.

T1 sequence (O75460 19-977): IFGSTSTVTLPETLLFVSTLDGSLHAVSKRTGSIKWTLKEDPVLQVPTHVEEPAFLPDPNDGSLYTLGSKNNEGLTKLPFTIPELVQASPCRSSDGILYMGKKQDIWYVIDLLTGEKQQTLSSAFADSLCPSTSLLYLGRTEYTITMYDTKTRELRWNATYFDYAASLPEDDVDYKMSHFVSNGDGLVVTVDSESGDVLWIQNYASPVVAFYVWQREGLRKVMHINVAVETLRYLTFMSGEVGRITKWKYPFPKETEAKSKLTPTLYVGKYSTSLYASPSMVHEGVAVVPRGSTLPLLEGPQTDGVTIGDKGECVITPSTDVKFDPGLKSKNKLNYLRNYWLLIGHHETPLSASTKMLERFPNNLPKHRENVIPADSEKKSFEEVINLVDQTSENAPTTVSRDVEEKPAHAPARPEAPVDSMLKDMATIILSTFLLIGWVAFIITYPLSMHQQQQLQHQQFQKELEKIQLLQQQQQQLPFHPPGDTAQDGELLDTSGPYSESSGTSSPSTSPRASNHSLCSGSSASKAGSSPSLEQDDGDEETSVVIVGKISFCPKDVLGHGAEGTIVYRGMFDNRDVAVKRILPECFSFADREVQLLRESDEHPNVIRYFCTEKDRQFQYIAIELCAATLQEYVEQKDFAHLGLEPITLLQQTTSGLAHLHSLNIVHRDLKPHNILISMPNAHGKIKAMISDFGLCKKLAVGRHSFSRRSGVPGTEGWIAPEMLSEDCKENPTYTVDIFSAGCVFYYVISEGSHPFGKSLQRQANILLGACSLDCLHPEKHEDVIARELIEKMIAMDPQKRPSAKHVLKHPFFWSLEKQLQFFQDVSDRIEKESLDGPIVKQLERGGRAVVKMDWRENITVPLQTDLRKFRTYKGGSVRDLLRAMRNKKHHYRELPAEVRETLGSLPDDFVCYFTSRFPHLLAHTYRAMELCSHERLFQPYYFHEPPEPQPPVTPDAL

Row | Molecule | % Growth at 0.185 uM (293T cells) | % Growth at 0.5556 uM (293T cells) | % Growth at 1.667 uM (293T cells) | % Growth at 5 uM (293T cells) | IC50 (IRE1a [1]) [nM] | EC50 (IRE1a [2]) [nM]
1 | CCc1cc(-c2ccc(NS(=O)(=O)c3ccccc3Cl)cc2)cc2cnc(N[C@H]3CC[C@H](N)CC3)nc12.O=CO [18; Formic Acid] | D (D: >75% to ≤100%) | D (D: >75% to ≤100%) | C (C: >50% to ≤75%) | A (A: ≤25%) | ≤ 5 | ≤ 5
2 | CCc1cc(-c2ccc(NS(=O)(=O)c3ccccc3Cl)cc2OC)cc2cnc(N[C@H]3CC[C@H](N)CC3)nc12.O=CO [19; Formic Acid] | D (D: >75% to ≤100%) | D (D: >75% to ≤100%) | C (C: >50% to ≤75%) | A (A: ≤25%) | ≤ 5 | ≤ 5
3 | CCc1cc(-c2ncc(NS(=O)(=O)c3ccccc3Cl)cc2C)cc2cnc(N[C@H]3CC[C@H](N)CC3)nc12.O=CO [20; Formic Acid] | D (D: >75% to ≤100%) | D (D: >75% to ≤100%) | D (D: >75% to ≤100%) | C (C: >50% to ≤75%) | ≤ 5 | 50 to 100
4 | CCc1cc(-c2cc(F)c(NS(=O)(=O)c3ccccc3Cl)cc2C)cc2cnc(N[C@H]3CC[C@H](N)CC3)nc12.O=CO [21; Formic Acid] | D (D: >75% to ≤100%) | D (D: >75% to ≤100%) | D (D: >75% to ≤100%) | B (B: >25% to ≤50%) | ≤ 5 | 5 to 50
5 | CCc1cc(-c2ccc(NS(=O)(=O)c3ccccc3Cl)c(C)c2C)cc2cnc(N[C@H]3CC[C@H](N)CC3)nc12.O=CO [22; Formic Acid] | D (D: >75% to ≤100%) | D (D: >75% to ≤100%) | D (D: >75% to ≤100%) | A (A: ≤25%) | 5 to 50 | > 100
6 | CCc1cc(-c2cnc(NS(=O)(=O)c3ccccc3Cl)nc2C)cc2cnc(N[C@H]3CC[C@H](N)CC3)nc12.O=CO [23; Formic Acid] | D (D: >75% to ≤100%) | C (C: >50% to ≤75%) | C (C: >50% to ≤75%) | D (D: >75% to ≤100%) | ≤ 5 | ≤ 5
7 | CCc1cc(-c2cnc(NS(=O)(=O)c3ccccc3Cl)cn2)cc2cnc(N[C@H]3CC[C@H](N)CC3)nc12.O=CO [25; Formic Acid] | D (D: >75% to ≤100%) | D (D: >75% to ≤100%) | D (D: >75% to ≤100%) | D (D: >75% to ≤100%) | ≤ 5 | ≤ 5
8 | CCc1cc(-c2ccc(NS(=O)(=O)c3ccccc3Cl)nc2)cc2cnc(N[C@H]3CC[C@H](N)CC3)nc12.O=CO [27; Formic Acid] | D (D: >75% to ≤100%) | D (D: >75% to ≤100%) | C (C: >50% to ≤75%) | B (B: >25% to ≤50%) | ≤ 5 | ≤ 5
9 | CCc1cc(-c2ccc(NS(=O)(=O)c3ccccc3Cl)cn2)cc2cnc(N[C@H]3CC[C@H](N)CC3)nc12.O=CO [28; Formic Acid] | D (D: >75% to ≤100%) | D (D: >75% to ≤100%) | C (C: >50% to ≤75%) | B (B: >25% to ≤50%) | ≤ 5 | ≤ 5
10 | CCc1cc(-c2cc(NS(=O)(=O)c3ccccc3Cl)n[nH]2)cc2cnc(N[C@H]3CC[C@H](N)CC3)nc12.O=CO [29; Formic Acid] | D (D: >75% to ≤100%) | D (D: >75% to ≤100%) | D (D: >75% to ≤100%) | D (D: >75% to ≤100%) | ≤ 5 | > 100
11 | CCc1cc(-c2ccc(NS(=O)(=O)c3ccccc3Cl)nn2)cc2cnc(N[C@H]3CC[C@H](N)CC3)nc12.O=CO [32; Formic Acid] | D (D: >75% to ≤100%) | D (D: >75% to ≤100%) | C (C: >50% to ≤75%) | B (B: >25% to ≤50%) | ≤ 5 | ≤ 5
12 | CCc1cc(-c2ncc(NS(=O)(=O)c3ccccc3Cl)cn2)cc2cnc(N[C@H]3CC[C@H](N)CC3)nc12.O=CO [33; Formic Acid] | D (D: >75% to ≤100%) | D (D: >75% to ≤100%) | D (D: >75% to ≤100%) | C (C: >50% to ≤75%) | ≤ 5 | ≤ 5
13 | CCc1cc(NS(=O)(=O)c2ccccc2Cl)ccc1-c1cc(CC)c2nc(N[C@H]3CC[C@H](N)CC3)ncc2c1.O=CO [34; Formic Acid] | D (D: >75% to ≤100%) | D (D: >75% to ≤100%) | D (D: >75% to ≤100%) | A (A: ≤25%) | ≤ 5 | 5 to 50
14 | Cn1nc(NS(=O)(=O)c2ccccc2Cl)cc1-c1ccc2nc(N[C@H]3CC[C@H](N)CC3)ncc2c1 [Compound 1, N-(5-(2-(((1r,4r)-4-aminocyclohexyl)amino)quinazolin-6-yl)-1-methyl-1H-pyrazol-3-yl)-2-chlorobenzenesulfonamide] | – | – | – | – | 5 to 50 | > 100
15 | Cc1cc(NS(=O)(=O)c2ccccc2Cl)ccc1-c1ccc2nc(N[C@H]3CC[C@H](N)CC3)ncc2c1 [Compound 2, N-(4-(2-(((1r,4r)-4-aminocyclohexyl)amino)quinazolin-6-yl)-3-methylphenyl)-2-chlorobenzenesulfonamide] | – | – | – | – | ≤ 5 | > 100
16 | CCc1cc(-c2cnc(NS(=O)(=O)c3ccccc3Cl)cc2C)cc2cnc(N[C@H]3CC[C@H](N)CC3)nc12 [Compound 4, N-(5-(2-(((1r,4r)-4-aminocyclohexyl)amino)-8-ethylquinazolin-6-yl)-4-methylpyridin-2-yl)-2-chlorobenzenesulfonamide] | – | – | – | – | ≤ 5 | 50 to 100
17 | Cc1cc(NS(=O)(=O)c2ccccc2Cl)ncc1-c1ccc2nc(N[C@H]3CC[C@H](N)CC3)ncc2c1 [Compound 5, N-(5-(2-(((1r,4r)-4-aminocyclohexyl)amino)quinazolin-6-yl)-4-methylpyridin-2-yl)-2-chlorobenzenesulfonamide] | – | – | – | – | ≤ 5 | > 100
18 | CCc1cc(-c2cc(NS(=O)(=O)c3ccccc3Cl)nn2C)cc2cnc(N[C@H]3CC[C@H](N)CC3)nc12 [Compound 6, N-(5-(2-(((1r,4r)-4-aminocyclohexyl)amino)-8-ethylquinazolin-6-yl)-1-methyl-1H-pyrazol-3-yl)-2-chlorobenzenesulfonamide] | – | – | – | – | ≤ 5 | 50 to 100
19 | N-(4-(2-(((1r,4r)-4-aminocyclohexyl)amino)quinazolin-6-yl)-3-methylphenyl)-3-chlorobenzenesulfonamide [Compound 11] | – | – | – | – | ≤ 5 | > 100
